pIC50: −log10 of the molar value.

This test deals with baculovirus-expressed ALK (Homo sapiens, UniProt Q9UM73). The experiment in a line: ALK Kinase Assay (ELISA/TRF, PLC-γ substrate). Further: 1 µM ATP (Km level). Type of test: biochemical. The conditions noted are these: read-out: ALK Kinase Inhibition (IC50). Put shortly: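 IC50 values fitted by nonlinear sigmoidal regression (variable slope) of percent inhibition against log compound concentration. Read-out was TRF of Eu-N1 anti-phosphotyrosine antibody bound to phosphorylated, plate-coated GST-PLC-γ (10 µg/mL). Kinase reaction used ALK at 30 ng/ml for 15 min at 37 °C.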
Chain of baculovirus-expressed ALK (Q9UM73 19-1620): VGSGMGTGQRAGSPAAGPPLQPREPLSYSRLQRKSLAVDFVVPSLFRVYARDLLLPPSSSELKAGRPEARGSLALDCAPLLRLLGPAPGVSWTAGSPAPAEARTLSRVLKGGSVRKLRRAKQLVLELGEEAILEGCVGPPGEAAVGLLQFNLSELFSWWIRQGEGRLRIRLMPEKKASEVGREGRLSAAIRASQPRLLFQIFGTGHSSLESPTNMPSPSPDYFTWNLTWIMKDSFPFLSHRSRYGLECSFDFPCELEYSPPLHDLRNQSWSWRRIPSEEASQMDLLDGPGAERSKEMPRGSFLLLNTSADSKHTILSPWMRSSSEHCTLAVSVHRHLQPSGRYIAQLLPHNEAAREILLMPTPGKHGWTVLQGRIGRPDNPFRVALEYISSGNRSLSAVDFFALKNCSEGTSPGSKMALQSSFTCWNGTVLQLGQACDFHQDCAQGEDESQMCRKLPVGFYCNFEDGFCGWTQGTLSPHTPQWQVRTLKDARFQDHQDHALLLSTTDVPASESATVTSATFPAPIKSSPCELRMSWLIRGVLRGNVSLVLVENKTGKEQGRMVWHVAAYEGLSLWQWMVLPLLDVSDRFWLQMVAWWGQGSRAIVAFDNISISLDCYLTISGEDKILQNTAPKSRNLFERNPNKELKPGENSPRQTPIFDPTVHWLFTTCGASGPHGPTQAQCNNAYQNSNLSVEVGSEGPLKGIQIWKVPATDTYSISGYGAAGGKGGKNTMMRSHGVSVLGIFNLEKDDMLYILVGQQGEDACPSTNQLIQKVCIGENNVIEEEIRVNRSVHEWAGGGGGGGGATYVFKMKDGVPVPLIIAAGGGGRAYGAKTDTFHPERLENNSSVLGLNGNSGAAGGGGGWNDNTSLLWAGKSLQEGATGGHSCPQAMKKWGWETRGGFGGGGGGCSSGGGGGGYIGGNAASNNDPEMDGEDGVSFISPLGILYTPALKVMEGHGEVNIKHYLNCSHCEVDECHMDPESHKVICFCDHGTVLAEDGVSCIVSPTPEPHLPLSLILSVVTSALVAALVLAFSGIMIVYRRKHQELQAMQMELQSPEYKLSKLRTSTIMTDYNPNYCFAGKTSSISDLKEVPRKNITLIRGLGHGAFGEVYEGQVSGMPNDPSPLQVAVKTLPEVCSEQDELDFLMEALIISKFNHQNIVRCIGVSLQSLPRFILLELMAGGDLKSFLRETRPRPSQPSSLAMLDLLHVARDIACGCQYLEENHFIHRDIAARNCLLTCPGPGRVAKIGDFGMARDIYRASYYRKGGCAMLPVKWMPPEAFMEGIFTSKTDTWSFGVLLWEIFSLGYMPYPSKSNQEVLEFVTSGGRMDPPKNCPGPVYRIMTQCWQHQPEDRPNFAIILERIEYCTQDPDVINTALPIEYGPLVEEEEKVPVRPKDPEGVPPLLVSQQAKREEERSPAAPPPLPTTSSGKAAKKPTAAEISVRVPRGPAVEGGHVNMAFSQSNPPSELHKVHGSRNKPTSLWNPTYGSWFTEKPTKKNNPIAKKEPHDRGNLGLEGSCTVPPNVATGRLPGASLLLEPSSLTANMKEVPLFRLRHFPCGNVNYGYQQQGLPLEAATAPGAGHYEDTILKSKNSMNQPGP

Consider `O=C(c1ccc(-c2cnc3c(c2)N(Cc2cc(Cl)ccc2C(F)(F)F)CCN3)cc1)N1CCN(c2ccc(Cl)c(Cl)c2)CC1` [Example 379, (4-{1-[5-Chloro-2-(trifluoromethyl)benzyl]-1,2,3,4-tetrahydropyrido[2,3-b]pyrazin-7-yl}phenyl)-[4-(3,4-dichlorophenyl)piperazin-1-yl]methanone], for which the pIC50 – broadly, the IC50 on a negative log10 scale, so that one unit is a factor of ten – was 6.00 to 7.00.

`CC(=O)N1CCN(C(=O)c2ccc(-c3cnc4c(c3)N(Cc3cc(Cl)ccc3C(F)(F)F)CCN4)cc2)CC1` [Example 392, 1-[4-(4-{1-[5-Chloro-2-(trifluoromethyl)benzyl]-1,2,3,4-tetrahydropyrido[2,3-b]pyrazin-7-yl}benzoyl)piperazin-1-yl]ethanone]: the negative-log IC50 (pIC50) is over 7.00.

Regarding `O=C(c1cccc(-c2cnc3c(c2)N(Cc2cc(Cl)ccc2C(F)(F)F)CCN3)c1)N1CCN(C(=O)C2CCCO2)CC1` (stereo not drawn) [Example 351, (3-{1-[5-Chloro-2-(trifluoromethyl)benzyl]-1,2,3,4-tetrahydropyrido[2,3-b]pyrazin-7-yl}phenyl)-[4-(tetrahydrofuran-2-carbonyl)piperazin-1-yl]methanone], the pIC50 is 6.00 to 7.00.

Turning to `O=C(NCc1csc(-c2ccccc2)n1)c1ccc(-c2cnc3c(c2)N(Cc2cc(Cl)ccc2C(F)(F)F)CCN3)cc1` [Example 407, 4-{1-[5-Chloro-2-(trifluoromethyl)benzyl]-1,2,3,4-tetrahydropyrido[2,3-b]pyrazin-7-yl}-N-(2-phenylthiazol-4-ylmethyl)benzamide], the negative-log IC50 (pIC50) is 6.00 to 7.00.

Turning to `O=C(c1ccc(-c2cnc3c(c2)N(Cc2cc(Cl)ccc2C(F)(F)F)CCN3)cc1)N1CCCC1c1cccnc1` (stereo not drawn) [Example 431, (4-{1-[5-Chloro-2-(trifluoromethyl)benzyl]-1,2,3,4-tetrahydropyrido[2,3-b]pyrazin-7-yl}phenyl)-(2-pyridin-3-yl-pyrrolidin-1-yl)methanone], the pIC50 is 6.00 to 7.00.

With `O=C(NCc1cccc(Cl)c1)c1ccc(-c2cnc3c(c2)N(Cc2cc(Cl)ccc2C(F)(F)F)CCN3)cc1` [Example 414, N-(3-Chloro-benzyl)-4-{1-[5-chloro-2-(trifluoromethyl)benzyl]-1,2,3,4-tetrahydropyrido[2,3-b]pyrazin-7-yl}benzamide], the negative-log IC50 (pIC50) is 6.00 to 7.00.

With `O=C(c1cccc(-c2cnc3c(c2)N(Cc2cc(Cl)ccc2C(F)(F)F)CCN3)c1)N1CCN(Cc2ccc(Cl)cc2)CC1` [Example 321, [4-(4-Chlorobenzyl)piperazin-1-yl]-(3-{1-[5-Chloro-2-(trifluoromethyl)benzyl]-1,2,3,4-tetrahydropyrido[2,3-b]pyrazin-7-yl}phenyl)methanone], the pIC50 is 6.00 to 7.00.

On to `COc1cccc(N2CCN(C(=O)c3cccc(-c4cnc5c(c4)N(Cc4cc(Cl)ccc4C(F)(F)F)CCN5)c3)CC2)c1` [Example 344, (3-{1-[5-Chloro-2-(trifluoromethyl)benzyl]-1,2,3,4-tetrahydropyrido[2,3-b]pyrazin-7-yl}phenyl)-[4-(3-methoxyphenyl)piperazin-1-yl]methanone], for which the pIC50 is 6.00 to 7.00.

As for `NS(=O)(=O)c1ccc(CCNC(=O)c2ccc(-c3cnc4c(c3)N(Cc3cc(Cl)ccc3C(F)(F)F)CCN4)cc2)cc1` [Example 405, 4-{1-[5-Chloro-2-(trifluoromethyl)benzyl]-1,2,3,4-tetrahydropyrido[2,3-b]pyrazin-7-yl}-N-[2-(4-sulfamoylphenyl)ethyl]benzamide], the pIC50 was 6.00 to 7.00.

As to `NS(=O)(=O)c1ccc(CCNC(=O)c2cccc(-c3cnc4c(c3)N(Cc3cc(Cl)ccc3C(F)(F)F)CCN4)c2)cc1` [Example 338, 3-{1-[5-Chloro-2-(trifluoromethyl)benzyl]-1,2,3,4-tetrahydropyrido[2,3-b]pyrazin-7-yl}-N-[2-(4-sulfamoylphenyl)ethyl]benzamide], the negative-log IC50 (pIC50) is 6.00 to 7.00.

Consider `COc1ccc(CN2CCN(C(=O)c3cccc(-c4cnc5c(c4)N(Cc4cc(Cl)ccc4C(F)(F)F)CCN5)c3)CC2)cc1` [Example 322, (3-{1-[5-Chloro-2-(trifluoromethyl)benzyl]-1,2,3,4-tetrahydropyrido[2,3-b]pyrazin-7-yl}phenyl)-[4-(4-methoxybenzyl)piperazin-1-yl]methanone], for which the negative logarithm of the IC50 (pIC50) was 6.00 to 7.00.

As to `CCOC(=O)N1CCC(NC(=O)c2cccc(-c3cnc4c(c3)N(Cc3cc(Cl)ccc3C(F)(F)F)CCN4)c2)CC1` [Example 326, 4-(3-{1-[5-Chloro-2-(trifluoromethyl)benzyl]-1,2,3,4-tetrahydropyrido[2,3-b]pyrazin-7-yl}benzoylamino)piperidine-1-carboxylic acid ethyl ester], the pIC50 was 6.00 to 7.00.

On to `O=C(c1ccc(-c2cnc3c(c2)N(Cc2cc(Cl)ccc2C(F)(F)F)CCN3)cc1)N1CCN(c2cccc(C(F)(F)F)c2)CC1` [Example 374, (4-{1-[5-Chloro-2-(trifluoromethyl)benzyl]-1,2,3,4-tetrahydropyrido[2,3-b]pyrazin-7-yl}phenyl)-{4-[3-(trifluoromethyl)phenyl]piperazin-1-yl}methanone], for which the negative logarithm of the IC50 (pIC50) was 6.00 to 7.00.

Consider `O=C(c1ccc(-c2cnc3c(c2)N(Cc2cc(Cl)ccc2C(F)(F)F)CCN3)cc1)N1CCN(c2cnccn2)CC1` [Example 406, (4-{1-[5-Chloro-2-(trifluoromethyl)benzyl]-1,2,3,4-tetrahydropyrido[2,3-b]pyrazin-7-yl}phenyl)-(2,3,5,6-tetrahydro[1,2′]bipyrazinyl-4-yl)methanone], for which the negative-log IC50 (pIC50) was over 7.00.

On to `O=C(NCCc1cccs1)c1ccc(-c2cnc3c(c2)N(Cc2cc(Cl)ccc2C(F)(F)F)CCN3)cc1` [Example 398, 4-{1-[5-Chloro-2-(trifluoromethyl)benzyl]-1,2,3,4-tetrahydropyrido[2,3-b]pyrazin-7-yl}-N-(2-thiophen-2-yl-ethyl)benzamide], for which the pIC50 was 6.00 to 7.00.

Take `O=C(NCc1ccc(-c2ccccc2)cc1)c1ccc(-c2cnc3c(c2)N(Cc2cc(Cl)ccc2C(F)(F)F)CCN3)cc1` [Example 425, N-Biphenyl-4-ylmethyl-4-{1-[5-Chloro-2-(trifluoromethyl)benzyl]-1,2,3,4-tetrahydropyrido[2,3-b]pyrazin-7-yl}benzamide]: the pIC50 was 5.00 to 6.00.

As for `O=C(c1cccc(-c2cnc3c(c2)N(Cc2cc(Cl)ccc2C(F)(F)F)CCN3)c1)N1CCN(c2nccc3occc23)CC1` [Example 324, (3-{1-[5-Chloro-2-(trifluoromethyl)benzyl]-1,2,3,4-tetrahydropyrido[2,3-b]pyrazin-7-yl}phenyl)-(4-furo[3,2-c]pyridin-4-ylpiperazin-1-yl)methanone], the negative-log IC50 (pIC50) is 6.00 to 7.00.

In the case of `O=C(c1cccc(-c2cnc3c(c2)N(Cc2cc(Cl)ccc2C(F)(F)F)CCN3)c1)N1CCC(Cc2ccccc2)CC1` [Example 316, (4-Benzylpiperidin-1-yl)-(3-{1-[5-Chloro-2-(trifluoromethyl)benzyl]-1,2,3,4-tetrahydropyrido[2,3-b]pyrazin-7-yl}phenyl)methanone], the negative logarithm of the IC50 (pIC50) was 6.00 to 7.00.

On to `COCCNC(=O)c1ccc(-c2cnc3c(c2)N(Cc2cc(Cl)ccc2C(F)(F)F)CCN3)cc1` [Example 404, 4-{1-[5-Chloro-2-(trifluoromethyl)benzyl]-1,2,3,4-tetrahydropyrido[2,3-b]pyrazin-7-yl}-N-(2-methoxyethyl)benzamide], for which the negative logarithm of the IC50 (pIC50) was over 7.00.

Turning to `O=C(NC1CCN(Cc2ccccc2)C1)c1ccc(-c2cnc3c(c2)N(Cc2cc(Cl)ccc2C(F)(F)F)CCN3)cc1` (stereo not drawn) [Example 427, N-(1-Benzylpyrrolidin-3-yl)-4-{1-[5-chloro-2-(trifluoromethyl)benzyl]-1,2,3,4-tetrahydropyrido[2,3-b]pyrazin-7-yl}benzamide], the pIC50 was 6.00 to 7.00.

Regarding `O=C(NCc1cccc(Cl)c1)c1cccc(-c2cnc3c(c2)N(Cc2cc(Cl)ccc2C(F)(F)F)CCN3)c1` [Example 350, N-(3-Chlorobenzyl)-3-{1-[5-Chloro-2-(trifluoromethyl)benzyl]-1,2,3,4-tetrahydropyrido[2,3-b]pyrazin-7-yl}benzamide], the pIC50 is 5.00 to 6.00.

Take `O=C(c1ccc(-c2cnc3c(c2)N(Cc2cc(Cl)ccc2C(F)(F)F)CCN3)cc1)N1CCN(c2ccccc2)CC1` [Example 368, (4-{1-[5-Chloro-2-(trifluoromethyl)benzyl]-1,2,3,4-tetrahydropyrido[2,3-b]pyrazin-7-yl}phenyl)-(4-phenylpiperazin-1-yl)methanone]: the pIC50 was 6.00 to 7.00.

On to `O=C(c1cccc(-c2cnc3c(c2)N(Cc2cc(Cl)ccc2C(F)(F)F)CCN3)c1)N1CCC2(CC1)C(=O)NCN2c1ccccc1` [Example 318, 8-(3-{1-[5-Chloro-2-(trifluoromethyl)benzyl]-1,2,3,4-tetrahydropyrido[2,3-b]pyrazin-7-yl}benzoyl)-1-phenyl-1,3,8-triaza-spiro[4.5]decan-4-one], for which the pIC50 was 6.00 to 7.00.

As for `O=C(NCc1ccc(Cl)cc1)c1cccc(-c2cnc3c(c2)N(Cc2cc(Cl)ccc2C(F)(F)F)CCN3)c1` [Example 349, N-(4-Chlorobenzyl)-3-{1-[5-Chloro-2-(trifluoromethyl)benzyl]-1,2,3,4-tetrahydropyrido[2,3-b]pyrazin-7-yl}benzamide], the negative logarithm of the IC50 (pIC50) is 6.00 to 7.00.

Regarding `O=C(c1cccc(-c2cnc3c(c2)N(Cc2cc(Cl)ccc2C(F)(F)F)CCN3)c1)N1CCN(c2ccccc2)CC1` [Example 306, (3-{1-[5-Chloro-2-(trifluoromethyl)benzyl]-1,2,3,4-tetrahydropyrido[2,3-b]pyrazin-7-yl}phenyl)-(4-phenylpiperazin-1-yl)methanone], the negative logarithm of the IC50 (pIC50) is 6.00 to 7.00.

Consider `O=C(NC1Cc2ccccc2C1)c1ccc(-c2cnc3c(c2)N(Cc2cc(Cl)ccc2C(F)(F)F)CCN3)cc1` [Example 423, 4-{1-[5-Chloro-2-(trifluoromethyl)benzyl]-1,2,3,4-tetrahydropyrido[2,3-b]pyrazin-7-yl}-N-indan-2-ylbenzamide], for which the pIC50 was 6.00 to 7.00.

Consider `O=C(NCc1ccccc1)c1ccc(-c2cnc3c(c2)N(Cc2cc(Cl)ccc2C(F)(F)F)CCN3)cc1` [Example 421, N-Benzyl-4-{1-[5-chloro-2-(trifluoromethyl)benzyl]-1,2,3,4-tetrahydropyrido[2,3-b]pyrazin-7-yl}benzamide], for which the negative-log IC50 (pIC50) is 6.00 to 7.00.

(Values after patent US7601716B2, “Pyridopyrazines and derivatives thereof as ALK and c-Met inhibitors” (Cephalon, Inc., priority 2006, dated 2009).)
